Measured values taken from the NIST ThermoML archive (doi:10.1016/j.tca.2014.12.004).
± gives the expanded uncertainty stated by the source.

Tests used:
[1] = Molar enthalpy of transition or fusion; conditions: Crystal; DSC
[2] = for thermal conductivity: 101.33 kPa

CCCCCCCCCCCC(=O)O [dodecanoic acid]
Conditions | Molar enthalpy of transition or fusion [kcal/mol]
[1] | 7.56 ± 0.621

[2]
Conditions | Normal melting temperature [°C] | thermal conductivity [W/m/K]
303.15 K, Crystal | – | 0.216 ± 0.016
308.15 K, Crystal | – | 0.218 ± 0.016
313.15 K, Crystal | – | 0.208 ± 0.015
323.15 K, Liquid | – | 0.14 ± 0.01
333.15 K, Liquid | – | 0.14 ± 0.01
Crystal, DTA | 42.80 ± 5 | –
